Source: US20250195521A1 (Revolution Medicines, Inc., priority 2020, published 2025)

How the values were obtained:
[1] = test system: Capan-1 cells (K-Ras G12V); test: CellTiter-Glo cell viability, Capan-1; assay type: cell-based, human; conditions: Homo sapiens, CAPAN-1, 120 h, K-Ras G12V, 5-day treatment; read-out: Capan-1 Cell Viability IC50
Summary of the method: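 Compounds dispensed directly onto seeded cells; on day 5 plates equilibrated ~30 min to room temperature and luminescence read. Signal normalized to DMSO average (%) and fitted by four-parameter logistic.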

[2] = target: KRAS G12S (Homo sapiens (Human), UniProt P01116+P62937, G12S); test: Ras-Raf disruption/FRET/MOA assay (BRAF RBD, Cyclophilin A); assay type: biochemical; conditions: read-out: KRAS G12S FRET IC50
Summary of the method: (§1)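 Measured: compound-facilitated Cyclophilin A:Ras complex blocking RAF RBD binding. Conditions: 12.5 nM Ras-GMPPNP, 50 nM BRAF RBD, 25 μM CypA, 3 h plus 1.5 h detection. Output: IC50 from TR-FRET ratio.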

[3] = target: KRAS G12C (Homo sapiens (Human), UniProt P01116+P62937, G12C); test: as above; assay type: biochemical; conditions: read-out: KRAS G12C FRET IC50
Summary of the method: as §1

[4] = target: NRAS G12C (Homo sapiens (Human), UniProt P01111+P62937, G12C); test: as above; assay type: biochemical; conditions: read-out: NRAS G12C FRET data IC50
Summary of the method: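 TR-FRET readout: anti-His Eu-W1024 (10 nM) and anti-GST allophycocyanin (50 nM) added after 3 h, 25° C compound incubation, then 1.5 h more. Decrease in FRET ratio versus DMSO wells marks Ras:RAF disruption; IC50 reported.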

[5] = target: KRAS G13D (Homo sapiens (Human), UniProt P01116+P62937, G13D); test: as above; assay type: biochemical; conditions: read-out: KRAS G13D FRET data IC50
Summary of the method: as §1

[6] = target: KRAS WT (Homo sapiens (Human), UniProt P01116+P62937); test: as above; assay type: biochemical; conditions: read-out: KRAS WT FRET data IC50
Summary of the method: as §1

[7] = target: KRAS G13C (Homo sapiens (Human), UniProt P01116+P62937, G13C); test: as above; assay type: biochemical; conditions: read-out: KRAS G13C FRET IC50
Summary of the method: as §1

[8] = target: KRAS G12D (Homo sapiens (Human), UniProt P01116+P62937, G12D); test: as above; assay type: biochemical; conditions: read-out: KRAS G12D FRET IC50
Summary of the method: as §1

[9] = target: KRAS G12V (Homo sapiens (Human), UniProt P01116+P62937, G12V); test: as above; assay type: biochemical; conditions: read-out: KRAS G12V FRET IC50
Summary of the method: as §1

[10] = test system: NCI-H358 cells (K-Ras G12C); test: CellTiter-Glo cell viability, NCI-H358; assay type: cell-based, human; conditions: Homo sapiens, NCI-H358, 120 h, K-Ras G12C, 5-day treatment; read-out: H358 Cell Viability IC50
Experimental: Note—The following protocol describes a procedure for monitoring cell viability of K-Ras mutant cancer cell lines in response to a compound of the invention. Other RAS isoforms may be employed, though the number of cells to be seeded will vary based on cell line used.
Test compounds (132.5 nl) were directly dispensed into the assay plates containing cells. […] On day 5, assay plates and their contents were equilibrated to room temperature for approximately 30 minutes. […] Luminescence was measured using the PerkinElmer Enspire. Data were normalized by the following: (Sample signal/Avg. DMSO)*100. The data were fit using a four-parameter logistic fit.

Chain of KRAS G12C (P01116-2 other isoform, or with tags, fused parts or gaps G12C): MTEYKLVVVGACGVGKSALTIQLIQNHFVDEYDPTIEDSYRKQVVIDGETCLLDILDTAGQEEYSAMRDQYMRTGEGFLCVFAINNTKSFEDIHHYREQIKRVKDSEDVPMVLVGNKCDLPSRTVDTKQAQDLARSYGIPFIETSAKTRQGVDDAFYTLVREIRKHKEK
Chain of KRAS G12C (P62937 whole entry): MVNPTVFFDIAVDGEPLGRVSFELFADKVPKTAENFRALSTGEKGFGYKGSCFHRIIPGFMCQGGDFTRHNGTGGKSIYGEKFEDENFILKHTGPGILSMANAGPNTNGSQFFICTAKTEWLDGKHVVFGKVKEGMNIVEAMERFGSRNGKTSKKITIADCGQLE
Chain of KRAS G13C (P01116 other isoform, or with tags, fused parts or gaps G13C): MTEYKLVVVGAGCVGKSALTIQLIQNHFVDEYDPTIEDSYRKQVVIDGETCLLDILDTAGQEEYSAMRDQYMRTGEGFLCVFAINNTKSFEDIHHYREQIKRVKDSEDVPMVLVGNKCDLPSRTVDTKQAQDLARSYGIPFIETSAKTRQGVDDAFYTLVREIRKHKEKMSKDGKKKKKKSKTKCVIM
Chain of KRAS G13C (P62937 whole entry): as the sequence (P62937 whole entry) above
Chain of KRAS G13D (P01116 other isoform, or with tags, fused parts or gaps G13D): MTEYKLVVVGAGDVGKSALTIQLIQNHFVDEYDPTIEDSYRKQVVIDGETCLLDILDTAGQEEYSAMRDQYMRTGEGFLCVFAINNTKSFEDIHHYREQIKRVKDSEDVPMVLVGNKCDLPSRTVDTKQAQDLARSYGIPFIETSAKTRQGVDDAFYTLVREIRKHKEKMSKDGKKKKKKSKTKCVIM
Chain of KRAS G13D (P62937 whole entry): as the sequence (P62937 whole entry) above
Chain of KRAS G12S (P01116 other isoform, or with tags, fused parts or gaps G12S): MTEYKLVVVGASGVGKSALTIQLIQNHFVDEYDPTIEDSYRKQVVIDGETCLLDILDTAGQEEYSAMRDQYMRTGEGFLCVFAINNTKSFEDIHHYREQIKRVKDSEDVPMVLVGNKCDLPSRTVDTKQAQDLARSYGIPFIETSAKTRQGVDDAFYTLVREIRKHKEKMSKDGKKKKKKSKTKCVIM
Chain of KRAS G12S (P62937 whole entry): as the sequence (P62937 whole entry) above
Chain of KRAS WT (P01116 other isoform, or with tags, fused parts or gaps): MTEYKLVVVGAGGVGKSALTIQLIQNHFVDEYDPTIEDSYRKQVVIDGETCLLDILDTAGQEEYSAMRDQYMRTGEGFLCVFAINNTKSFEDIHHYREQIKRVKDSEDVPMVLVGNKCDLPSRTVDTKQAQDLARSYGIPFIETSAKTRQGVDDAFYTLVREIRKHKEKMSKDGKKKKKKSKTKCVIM
Chain of KRAS WT (P62937 whole entry): as the sequence (P62937 whole entry) above
Chain of KRAS G12V (P01116 other isoform, or with tags, fused parts or gaps G12V): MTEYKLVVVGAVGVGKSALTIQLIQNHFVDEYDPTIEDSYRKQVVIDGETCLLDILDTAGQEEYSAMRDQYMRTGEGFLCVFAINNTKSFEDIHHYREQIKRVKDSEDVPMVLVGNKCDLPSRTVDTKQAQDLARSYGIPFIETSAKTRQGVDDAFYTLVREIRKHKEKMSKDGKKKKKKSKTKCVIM
Chain of KRAS G12V (P62937 whole entry): as the sequence (P62937 whole entry) above
Chain of NRAS G12C (P01111 whole entry G12C): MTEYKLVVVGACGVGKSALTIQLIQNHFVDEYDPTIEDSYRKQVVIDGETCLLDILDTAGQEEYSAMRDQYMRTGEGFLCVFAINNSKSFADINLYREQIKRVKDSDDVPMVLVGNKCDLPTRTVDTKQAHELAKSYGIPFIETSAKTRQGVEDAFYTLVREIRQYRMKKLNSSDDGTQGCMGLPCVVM
Chain of NRAS G12C (P62937 whole entry): as the sequence (P62937 whole entry) above
Chain of KRAS G12D (P01116 other isoform, or with tags, fused parts or gaps G12D): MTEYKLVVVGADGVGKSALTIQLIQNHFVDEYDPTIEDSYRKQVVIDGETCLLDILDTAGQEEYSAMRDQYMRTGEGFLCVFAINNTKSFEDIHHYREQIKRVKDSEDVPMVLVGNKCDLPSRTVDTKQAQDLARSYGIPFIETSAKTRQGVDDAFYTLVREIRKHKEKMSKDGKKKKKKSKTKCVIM
Chain of KRAS G12D (P62937 whole entry): as the sequence (P62937 whole entry) above

Row | Structure (SMILES) | IC50 [1] [nM] | IC50 [2] [nM] | IC50 [3] [nM] | IC50 [4] [nM] | IC50 [5] [nM] | IC50 [6] [nM] | IC50 [7] [nM] | IC50 [8] [nM] | IC50 [9] [nM] | IC50 [10] [nM]
1 | CCn1c(-c2cccnc2[C@H](C)OC)c2c3cc(ccc31)-c1cc(O)cc(c1)C[C@H](NC(=O)[C@H](C(C)C)N(C)C(=O)[C@H]1CCCO1)C(=O)N1CCC[C@H](N1)C(=O)OCC(C)(C)C2 [Compound A240] | 10 to 100 | 100 to 1000 | 10 to 100 | 10 to 100 | 100 to 1000 | 100 to 1000 | 10 to 100 | 100 to 1000 | 100 to 1000 | 10 to 100
2 | CCn1c(-c2cccnc2[C@H](C)OC)c2c3cc(ccc31)-c1cc(O)cc(c1)C[C@H](NC(=O)[C@H](C(C)C)N(C)C(=O)[C@H]1CCCCNC1)C(=O)N1CCC[C@H](N1)C(=O)OCC(C)(C)C2 [Compound A242] | 100 to 1000 | 10 to 100 | 10 to 100 | 10 to 100 | 10 to 100 | 10 to 100 | 10 to 100 | 10 to 100 | 100 to 1000 | 10 to 100
3 | CCn1c(-c2cccnc2[C@H](C)OC)c2c3cc(ccc31)-c1csc(n1)C[C@H](NC(=O)[C@H](C(C)C)N(C)C(=O)[C@H]1CCN(C(C)=O)C1)C(=O)N1CCC[C@H](N1)C(=O)OCC(C)(C)C2 [Compound A244] | 100 to 1000 | 1000 to 10000 | 1000 to 10000 | 1000 to 10000 | > 10000 | 1000 to 10000 | 1000 to 10000 | > 10000 | 1000 to 10000 | 1000 to 10000
4 | CCn1c(-c2cccnc2[C@H](C)OC)c2c3cc(ccc31)-c1cc(O)cc(c1)C[C@H](NC(=O)[C@H](C(C)C)N(C)C(=O)C1Cc3nccn3C1)C(=O)N1CCC[C@H](N1)C(=O)OCC(C)(C)C2 (stereo partly shown) [Compound A249] | 100 to 1000 | 10 to 100 | 10 to 100 | 10 to 100 | 10 to 100 | 10 to 100 | 10 to 100 | 10 to 100 | 10 to 100 | 10 to 100
5 | CCn1c(-c2cnccc2COC)c2c3cc(ccc31)-c1cc(O)cc(c1)C[C@H](NC(=O)C(C)C1CCOCC1)C(=O)N1CCC[C@H](N1)C(=O)OCC(C)(C)C2 (stereo partly shown) [Compound A258] | > 10000 | 1000 to 10000 | 1000 to 10000 | 1000 to 10000 | 1000 to 10000 | 1000 to 10000 | 100 to 1000 | > 10000 | 1000 to 10000 | 1000 to 10000
6 | CCn1c(-c2cccnc2[C@H](C)OC)c2c3cc(ccc31)-c1csc(n1)C[C@H](NC(=O)[C@H](C(C)C)N(C)C(=O)N1CCN(C)CC13CC3)C(=O)N1CCC[C@H](N1)C(=O)OCC(C)(C)C2 [Compound A307] | 100 to 1000 | 1000 to 10000 | 1000 to 10000 | 1000 to 10000 | 1000 to 10000 | 1000 to 10000 | 1000 to 10000 | 1000 to 10000 | 1000 to 10000 | 10 to 100
7 | CCn1c(-c2cccnc2[C@H](C)OC)c2c3cc(ccc31)-c1csc(n1)C[C@H](NC(=O)[C@H](C(C)C)N(C)C(=O)N1CC3CCC1CN3C)C(=O)N1CCC[C@H](N1)C(=O)OCC(C)(C)C2 [Compound A308] | 100 to 1000 | 1000 to 10000 | 100 to 1000 | 100 to 1000 | 1000 to 10000 | 100 to 1000 | 1000 to 10000 | 1000 to 10000 | 1000 to 10000 | 100 to 1000
8 | CCn1c(-c2cccnc2[C@H](C)OC)c2c3cc(ccc31)-c1cc(O)cc(c1)C[C@H](NC(=O)[C@H](C(C)C)N(C)C(=O)[C@H]1CCN(C(=O)C(C)(C)NC)C1)C(=O)N1CCC[C@H](N1)C(=O)OCC(C)(C)C2 [Compound A381] | 1000 to 10000 | 10 to 100 | 10 to 100 | 10 to 100 | 10 to 100 | 10 to 100 | – | 10 to 100 | 100 to 1000 | 100 to 1000
